Assay [1] concerns COS-7 cells. The experiment in a line: Automated lipofection screening: GFP-luciferase reporter gene transfer (luciferase activity per protein content). It is filed as cell-based, African green monkey. The following applies: point is thousands separator; for Maximum transfection efficiency, MW (mean value), Helper lipid: DOPE / Maximum transfection efficiency, MW (mean value), Helper lipid: CHOL / Maximum transfection efficiency, MW (mean value), Helper lipid: without: pEGFPLuc plasmid; for Maximum transfection efficiency, MW (mean value), Helper lipid: DOPE: cationic/helper lipid 1:0.5 with DOPE; for Maximum transfection efficiency, MW (mean value), Helper lipid: DOPE / Maximum transfection efficiency, MW (mean value), Helper lipid: CHOL: at the LDR giving the maximum; for Maximum transfection efficiency, MW (mean value), Helper lipid: CHOL: cationic/helper lipid 1:0.5 with cholesterol; for Maximum transfection efficiency, MW (mean value), Helper lipid: without: no helper lipid, at the LDR (1:1-15:1) giving the maximum. As for the experimental part:
Screening the combinatorial lipid library for lipofection properties: Goal of this first step was to compare transfection efficiency of these structurally related cationic lipids with systematically modified hydrocarbon chain compositions for the development of suitable lipofection reagents and protocols and to study the relationship between structure and transfection efficiency of this new class of cationic lipids for gene transfer. All lipids (MS-1 to MS-50, table 1) were tested using a standard protocol: From each lipid, twenty four different lipoplexes were formed containing either no helper lipid or the helper lipids DOPE and CHOL at molar amounts (1:0.5), respectively, using eight different lipid:DNA-charge ratios (LDR) from 1:1 - 15:1, resulting in a lipofection profile for each lipid. The COS-7 cell-line was used for this lipofection study since COS-7 is easy to transfect and differences between the lipids are easy to identify.
Cell culture: SV40 transformed African green monkey kidney cell line COS-7 (ATCC CRL-1651) was routinely passaged in DMEM (GIBCO BRL, Karlsruhe, Germany), respectively, supplemented with 1% L-glutamin solution (100x), 1% Penicillin/Streptomycin solution (100x) (GIBCO BRL, Karlsruhe, Germany), and 10% FCS (BioWhittaker, Verviers, Belgium) at 37°C with 5% CO2 in humidified atmosphere. For the screening cells were maintained in 96-well culture plates (Greiner, Frickenhausen, Germany) in 100 µl DMEM, 10 % FCS, 1 % Penicillin-streptomycin in a humidified atmosphere at 37 °C/5 % CO2. 24 h prior to transfection, the cells were seeded into the microtiter plate at 10,000 cells per well to reach a confluency of 50 % at the time of transfection. Dendritic cells: Dendritic cells (DC) were derived from highly purified circulating CD14(+) monocytes: In a first step, peripheral blood mononuclear leukocytes (PBL) from healthy control persons were isolated by Ficoll-Paque (Pharmacia Biotech AB, Uppsala, Sweden) density centrifugation. The following immunomagnetic purification of the monocytes from PBL was performed using CD14 Microbeads and MiniMACS high gradient magnetic separation columns (Miltenyi Biotech, Bergisch Gladbach, Germany) according to manufacturer's instructions. Isolated monocytes (5 x 10^5/well) were cultured in RPMI supplemented with 10 % FCS, or serum-free Macrophage-SFM medium (GIBCO BRL, Karlsruhe, Germany) supplemented with human recombinant GM-CSF (0.05µg/ml) and IL-4 (0.025µg/ml) (PromoCell, Heidelberg, Germany) in 6-well plates. Aliquots of the cells were reanalyzed by FACS with anti-CD14 mAbs (Pharmingen, San Diego, CA). After 5-6 days non-adherent cells were collected and purity of DCs was determined by FACS analysis using a FACSort flow cytometer (Becton Dickinson, Mountain View, CA) and the CellQuest software for data processing as recently described (Jantscheff, P. et al., J. Immunol. Methods 163(1):91-7 (1993)).
On the technique in general: In a reporter assay the amount or activity of a reporter protein is the signal.

The subject of assay [2] is primary dendritic cells. The experiment in a line: Transfection of primary dendritic cells with lipoplexes (luciferase activity per protein content). The class given is cell-based, human. Here is the method:
Cell culture: SV40 transformed African green monkey kidney cell line COS-7 (ATCC CRL-1651) was routinely passaged in DMEM (GIBCO BRL, Karlsruhe, Germany), respectively, supplemented with 1% L-glutamin solution (100x), 1% Penicillin/Streptomycin solution (100x) (GIBCO BRL, Karlsruhe, Germany), and 10% FCS (BioWhittaker, Verviers, Belgium) at 37°C with 5% CO2 in humidified atmosphere. For the screening cells were maintained in 96-well culture plates (Greiner, Frickenhausen, Germany) in 100 μl DMEM, 10 % FCS, 1 % Penicillin-streptomycin in a humidified atmosphere at 37 °C/5 % CO2. 24 h prior to transfection, the cells were seeded into the microtiter plate at 10,000 cells per well to reach a confluency of 50 % at the time of transfection. […] After 5-6 days non-adherent cells were collected and purity of DCs was determined by FACS analysis using a FACSort flow cytometer (Becton Dickinson, Mountain View, CA) and the CellQuest software for data processing as recently described (Jantscheff, P. et al., J. Immunol. Methods 163(1):91-7 (1993)). […] Binding specificity was determined using IgG1 (MOPC-21), IgG2a (UPC-10), or IgG2b (MOPC-141) isotype control mAbs (SIGMA-ALDRICH Chemie, Buchs, Switzerland). […]

Take `CCCCCCCC/C=C\CCCCCCCC(=O)OCC(C[N+](C)(C)C)OC(=O)CCCCCCC/C=C\CCCCCCCC` (stereo not drawn) [DOTAP, N-[1-(2,3-dioleoyloxy)propyl]-N,N,N-trimethylammonium methylsulfate]: the “transfection efficiency (DOTAP values)” value in assay [1] (best lipid/DNA charge ratio of 2.5, determined in each run) is listed as 30.838 ± 6.363 RLU. For the same compound, in assay [2] (helper lipid 1:0.5 at optimum lipid:DNA ratio, ± standard deviation (lu µg^-1 protein)), the “Transfection efficiencies, RLU” value is given as 235 ± 119 RLU. Besides, the “% DOTAP” value in assay [2] (standardized on lipofection efficiency of DOTAP-lipoplexes set to 100%) came to 100%.

Turning to `CCCCCCCCCCCCCC[N+](C)(CCCCCCCCCCCCCC)[C@@H](CO)C(=O)NCCCN` [compound 32], in assay [1], the “Maximum transfection efficiency, MW (mean value), Helper lipid: DOPE” value (from here on “Maximum transfection efficiency, MW … DOPE”) turned out to be 225.268 RLU; the “Maximum transfection efficiency, MW (mean value), Helper lipid: CHOL” value (shortened to “Maximum transfection efficiency, MW … CHOL”) is recorded as 447.443 RLU; the “Maximum transfection efficiency, MW (mean value), Helper lipid: without” value (“Maximum transfection efficiency, MW … without” below) stood at 2.075 RLU.

Regarding `CCCCCCCCCCCCCCCCCC[N+](C)(CCCCCCCCCCCCCCCCCC)[C@@H](CO)C(=O)NCCCCCN` [compound 44], in assay [1], the “Maximum transfection efficiency, MW … DOPE” value is given as 1.712 RLU; the “Maximum transfection efficiency, MW … CHOL” value was 28.104 RLU; the “Maximum transfection efficiency, MW … without” value came to 3.542 RLU.

Take `CCCCCCCCCCCCCCN(CCCCCCCCCCCCCC)[C@@H](CO)C(=O)NCCCCCCN` [compound 22]: in assay [1], the “Maximum transfection efficiency, MW … DOPE” value is 164.165 RLU; the “Maximum transfection efficiency, MW … CHOL” value was 241.264 RLU; the “Maximum transfection efficiency, MW … without” value was determined as 237.631 RLU.

(Values after patent EP1457483A1, “Cationic lipids with serine backbone” (Ruhr-Universität Bochum, priority 2003, dated 2004).)
